Laboratory results published in patent US11643439B2, “Multi-target compound with anticoagulation and antiplatelet activity, preparation method therefor, and use thereof” (SHAANXI MICOT TECHNOLOGY LIMITED COMPANY, priority 2015, dated 2023).

Columns and labels:
[1] = tested on: blood coagulation function; test: APTT in rats, intravenous maintenance administration; format: in vivo, rat
Experimental: (§1) 160 Rats were randomly divided into groups, 5 to 10 rats per group.
(§2) According to the body weight in kilograms of the rats, the first dose of a drug was dissolved in 2 mL of physiological saline for single bolus injection. The maintaining dose of drug was dissolved in 9 ml of physiological saline, and placed in a double-channel micro-injection pump, which was dripped off within 90 minutes at a dripping speed of 0.1 ml/min. The sham operation group was administered with the same volume of physiological saline.
(§3) The rats were fasted with free access to water overnight before the experiment.
(§4) The blood samples were taken before administration, administration for 60 minutes, and before termination of administration, respectively, to determine their activated partial thromboplastin time (APTT) and prothrombin time (PT). The blood samples were centrifuged at 3510 rpm for 8 minutes to obtain platelet poor plasma (PPP). Reagent reconstruction and preservation were performed according to the operation requirements of the kit. Immediately after each blood sample was placed into a test cup and then PT and APTT reagents were added, the test was started. After the test was completed, results were recorded.
(§5) 5.1 Determination of blood coagulation function: The blood samples were taken 0 min before administration, administration for 60 minutes, and termination of administration, respectively, and then determined using a platelet-aggregation coagulation factor analyzer for the blood coagulation functions (PT. APTT) and ACT.

[2] = tested on: blood coagulation function; test: PT in rats, intravenous maintenance administration; format: in vivo, rat
Experimental: as §1, §2, §3, §4, §5

[3] = tested on: FeCl3-induced femoral artery thrombosis; test: FeCl3-induced femoral artery thrombosis in rabbits, single intravenous administration; format: in vivo, rabbit; details: single iv 200 U (U/kg)
Experimental: (§6) 1. Grouping and administration: 48 Rabbits were randomly divided into 6 groups, 8 rabbits per group. 1) Sham operation group (NS): Intravenous injection of the same volume of physiological saline; 2) positive control bivalirudin group (6 mg/kg); 3) positive control enoxaparin group (200 U/kg); 4) Low dose group of polypeptide 2 (3.0 mg/kg); 5) Medium dose group of polypeptide 2 (6.0 mg/kg); 6) High dose group of polypeptide 2 (12.0 mg/kg). Polypeptide 2 was administered by single intravenous administration. According to the body weight in kilograms of the rabbits, the sample was dissolved in 2 mL of physiological saline for single bolus injection. The sham operation group was administered with the same volume of physiological saline.
(§7) 2.1 Surgery preparation of rabbits: Rabbit were sent to the laboratory for accommodation for one day, and then screened at first. Blood samples were taken from arteries within ears, which were subjected to blood routine analysis and APTT examinations, and the rabbits with a normal blood hemogram and APTT between 16 and 28 seconds were selected for experiments. The rabbits to be tested were fasted with free access to water in the night before the experiment. The rabbits were anesthetized with intravenous injection of 3% sodium pentobarbital solution at 1 ml/kg, fixed in the supine position, and then, the common carotid artery at one side, external jugular vein, femoral artery at one side, femoral vein, and forelimb vein at one side were isolated. The forelimb vein was subjected to intubation for administration; the left femoral vein was subjected to intubation for blood collection to determine the platelet aggregation rate: the femoral artery was used for the establishment of an arterial thrombosis model; the common carotid artery and external jugular vein were used for the establishment of an arterial and venous bypass thrombosis model.
2.3 Arterial thrombosis (AT) model: A small piece of filter paper (1 cm×1.5 cm) absorbed with 50% FeCl3 solution was applied onto the right femoral artery while administration, below which a small piece of a plastic film (2.5 cm×2.0 cm) was placed to protect surrounding tissues. After 10 minutes, the filter paper was removed, and then, the blood vessels and local tissues were rinsed with warm physiological saline, and the covered blood vessels were cut off. The thrombus which attached to the blood vessel walls was peeled off to be weighed on a tin foil for its wet weight, and then kept overnight at room temperature and weighed for its dry weight.
(§8) The femoral arteries in the […] and both sides in the rabbits were isolated and stabilized for 10 min before the administration was started. An AT model was established by covering the femoral artery with 50% FeCl3 filter paper while administration, and the filter paper was removed after covering for 15 minutes. An AVST model was established and it was taken out after […]. Observation was continued for 120 min after administration until the experiment was completed.
(§9) 3.4 Thrombus weight: After the experiment was completed, the segment of the blood vessels in which there had been thrombus formation was cut off, weighed for the wet weight, and then kept overnight at room temperature and weighed for the dry weight. The thrombosis inhibitory rate was calculated with a calculation equation as follows: […]

[4] = tested on: femoral arterial and venous bypass thrombosis; test: Femoral arterial and venous bypass thrombosis in rabbits, single intravenous administration; format: in vivo, rabbit; details: single iv 200 U (U/kg), 15 min
Experimental: as §6, §7
2.2 Arterial and venous bypass thrombosis (AVST) model: An arterial and venous shunt consists of two casings, of which an outer casing has a length of about 8 cm and an inner diameter of 7.9 mm, the inner casing has a length of about 2.5 cm and an inner diameter of 4.8 mm. The polyethylene tube was charged with a silk thread about 8 cm long and filled with […] heparin solution, of which one end was inserted into the left femoral artery and the other end was inserted into the right femoral vein. After administration for 30 seconds, the blood flow was released, which flowed from the left artery to the polyethylene tube and returned to the right vein. After 15 minutes, the blood flow was interrupted, the silk thread was quickly removed and placed on an aluminum foil (size: 2.5 cm×2.5 cm), measured for its wet weight, and kept overnight at room temperature and weighed for its dry weight.
as §8, §9

whole blood coagulation = test: ACT in rabbits, single intravenous administration; format: in vivo, rabbit; details: single iv 200 (U/kg)
Experimental: as §6
3.3 Determination of ACT: At 0 min before administration and at points of administration for 5 min and 15 min, the whole blood was taken, to which kaolin was added, and placed in a water bath at 37° C. to record the whole blood coagulation time.

## Enoxaparin
[1]; iv 30 + 45 u (U/kg+U/kg/h)
  APTT Before administration: 28.99 ± 7.00
  APTT Fold of change: 1.78 ± 0.61
  APTT administration for 60 minutes: 52.28 ± 22.51
[1]; iv 30 + 120 u (U/kg+U/kg/h)
  APTT Before administration: 23.66 ± 5.88
  APTT Fold of change: 4.65 ± 1.72
  APTT administration for 60 minutes: 117.55 ± 78.85
[1]; iv 60 + 60 u (U/kg+U/kg/h)
  APTT Before administration: 23.45 ± 4.70
  APTT Fold of change: 2.66 ± 0.36
  APTT administration for 60 minutes: 61.81 ± 13.19
[1]; iv 60 + 240 u (U/kg+U/kg/h)
  APTT Before administration: 26.79 ± 4.74
  APTT Fold of change: 10.69 ± 7.14
  APTT administration for 60 minutes: 270.43 ± 166.43
[1]; iv 90 + 120 u (U/kg+U/kg/h)
  APTT Before administration: 19.04 ± 5.26
  APTT Fold of change: 16.34 ± 12.97
  APTT administration for 60 minutes: 270.85 ± 148.90
[2]; iv 30 + 45 u (U/kg+U/kg/h)
  PT Before administration: 10.23 ± 1.19
  PT Fold of change: 1.24 ± 0.14
  PT administration for 60 minutes: 12.70 ± 2.49
[2]; iv 30 + 120 u (U/kg+U/kg/h)
  PT Before administration: 9.93 ± 1.77
  PT Fold of change: 1.67 ± 0.42
  PT administration for 60 minutes: 16.17 ± 1.86
[2]; iv 60 + 60 u (U/kg+U/kg/h)
  PT Before administration: 9.53 ± 1.96
  PT Fold of change: 4.10 ± 5.56
  PT administration for 60 minutes: 31.39 ± 35.50
[2]; iv 60 + 240 u (U/kg+U/kg/h)
  PT Before administration: 10.28 ± 0.98
  PT Fold of change: 1.78 ± 0.30
  PT administration for 60 minutes: 18.21 ± 2.70
[2]; iv 90 + 120 u (U/kg+U/kg/h)
  PT Before administration: 9.63 ± 1.58
  PT Fold of change: 1.57 ± 0.21
  PT administration for 60 minutes: 14.88 ± 1.67
[3]
  Thrombus dry weight: 1.5 ± 0.4 mg
  Thrombus inhibitory rate: 48.26%
[4]
  Thrombus dry weight: 17.3 ± 6.5 mg
  Thrombus inhibitory rate: 26.88%
Whole blood coagulation; Administration for 5 min
  ACT: 915.0 ± 37.7 s
Whole blood coagulation; Administration for 15 min
  ACT: 610.7 ± 25.7 s
Whole blood coagulation; After administration 5 min
  ACT fold of prolongation: 3.4 ± 1.1
Whole blood coagulation; After administration 15 min
  ACT fold of prolongation: 2.2 ± 0.7
Whole blood coagulation; Before administration
  ACT: 285.0 ± 25.6 s
